# Experimental data reported in patent publication US20090196833A1, “COMPOSITIONS COMPRISING TOPICAL DPD INHIBITORS AND METHODS OF USING SAME IN THE TREATMENT OF HAND-FOOT SYNDROME” (ADHEREX TECHNOLOGIES INC., priority 2008, published 2009).
# Where two headings read alike, the source gives them in different places.
# Assays:
# [1] = pH of test article in the EpiDerm studies; assay type: physicochemical
# [2] = molecular target: T1, dihydropyrimidine dehydrogenase (DPD) (Sus scrofa, UniProt Q28943); assay: Skin DPD activity in pigs with topical eniluracil (Example 6); assay type: in vivo; details: short term topical application at 0.005% or 0.01% w/w
# T1 construct: the supernatant (cytosolic fraction) was collected for use as the enzyme source; from tissue; host or cells: pig skin biopsies after topical dosing in vivo
# T1 sequence (Q28943 4-1025): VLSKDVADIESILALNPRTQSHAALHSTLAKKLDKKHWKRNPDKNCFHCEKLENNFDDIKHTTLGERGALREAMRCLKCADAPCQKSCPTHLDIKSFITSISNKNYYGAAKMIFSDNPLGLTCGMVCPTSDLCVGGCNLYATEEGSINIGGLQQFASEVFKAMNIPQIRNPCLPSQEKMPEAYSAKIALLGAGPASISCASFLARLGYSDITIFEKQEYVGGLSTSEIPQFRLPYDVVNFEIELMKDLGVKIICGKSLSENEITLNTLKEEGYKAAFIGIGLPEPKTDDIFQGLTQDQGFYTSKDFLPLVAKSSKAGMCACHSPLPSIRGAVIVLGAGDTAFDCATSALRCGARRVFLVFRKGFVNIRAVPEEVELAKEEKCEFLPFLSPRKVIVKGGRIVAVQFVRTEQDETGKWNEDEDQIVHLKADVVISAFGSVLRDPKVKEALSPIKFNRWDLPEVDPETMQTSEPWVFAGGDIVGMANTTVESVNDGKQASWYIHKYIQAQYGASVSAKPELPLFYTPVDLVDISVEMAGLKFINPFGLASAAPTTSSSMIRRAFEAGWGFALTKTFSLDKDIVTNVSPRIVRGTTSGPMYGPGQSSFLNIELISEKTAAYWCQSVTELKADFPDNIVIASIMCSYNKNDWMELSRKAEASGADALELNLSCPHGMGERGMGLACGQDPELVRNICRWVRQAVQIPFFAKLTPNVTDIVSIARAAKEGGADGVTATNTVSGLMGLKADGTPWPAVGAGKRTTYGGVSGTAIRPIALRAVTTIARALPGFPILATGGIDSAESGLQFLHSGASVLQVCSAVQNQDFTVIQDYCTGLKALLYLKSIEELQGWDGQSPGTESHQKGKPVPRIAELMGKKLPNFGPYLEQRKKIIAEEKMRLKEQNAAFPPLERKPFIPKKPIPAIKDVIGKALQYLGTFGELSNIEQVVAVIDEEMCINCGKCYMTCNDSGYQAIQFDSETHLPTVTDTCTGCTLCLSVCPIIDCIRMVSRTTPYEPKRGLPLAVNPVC
# Procedure: This study was carried out to determine the plasma pharmacokinetics of eniluracil (EU) after topical administration and to evaluate the effect of topical eniluracil application on 5-FU pharmacokinetics, peripheral blood mononuclear cell (PBMC) dihydropyrimidine dehydrogenase (DPD) function, and levels of DPD activity in the skin in vivo. Eniluracil (0.005% and 0.01% w/w) formulated using Aquaphor® was applied topically (617 mg to a designated area) for 5 minutes every other day for 16 days starting on Day-2. 5-Fluorouracil was administered as a 6 mg/kg bolus injection on Day-3, Day 0 and Day 14. […]
# A baseline 5-FU pharmacokinetic study was conducted on Day-3 by collecting serial blood samples after 5-FU administration. […] The duration of application was 5 minutes, which was determined based data obtained from a pilot study. […] These samples were then analyzed for DPD activity.
# Ointment exposure time was 5 minutes every other day for 16 days. […] Eniluracil pharmacokinetics were analyzed from the serial blood samples drawn on first day of the 5-FU and eniluracil treatment (Day 0) and on Day 14. In addition, eniluracil concentrations were evaluated in all samples obtained for 5-FU pharmacokinetics, as shown above. 5-FU pharmacokinetics were evaluated from 11 serial blood samples drawn after the IV bolus administration of 5-FU on Day-3, Day 0 and Day 14. […]
# [3] = Plasma eniluracil after topical administration in pigs (Example 6); assay type: in vivo
# Procedure: (§1) This study was carried out to determine the plasma pharmacokinetics of eniluracil (EU) after topical administration and to evaluate the effect of topical eniluracil application on 5-FU pharmacokinetics, peripheral blood mononuclear cell (PBMC) dihydropyrimidine dehydrogenase (DPD) function, and levels of DPD activity in the skin in vivo. Eniluracil (0.005% and 0.01% w/w) formulated using Aquaphor® was applied topically (617 mg to a designated area) for 5 minutes every other day for 16 days starting on Day-2. 5-Fluorouracil was administered as a 6 mg/kg bolus injection on Day-3, Day 0 and Day 14. Samples were collected at predetermined time intervals to evaluate 5-fluorouracil pharmacokinetics, eniluracil pharmacokinetics, skin DPD activity and systemic DPD activity.
# (§2) A baseline 5-FU pharmacokinetic study was conducted on Day-3 by collecting serial blood samples after 5-FU administration. […] The total ointment applied was […]. The area of application in the pig ([…]=0.0040 m^2) was selected based on feasibility and scale to the proposed human use using the following figures: the surface area of one palm and one sole combined in a human is 2% of the total body surface area, the average total body surface area in a pig is 0.40 m^2. Thus, in terms of total eniluracil in mg/m^2 applied to pigs was 0.154 for 0.01% and 0.077 for 0.005%. The duration of application was 5 minutes, which was determined based data obtained from a pilot study. In this study, higher doses of topical eniluracil (5 gms of 0.01%, 0.05% and 0.01% w/w) and placebo were applied on the skin and skin biopsies were collected after predefined time intervals. These samples were then analyzed for DPD activity.
# Ointment exposure time was 5 minutes every other day for 16 days. Eniluracil treated animals also received 617 mg of placebo at a site different from the treatment site. Eniluracil pharmacokinetics were analyzed from the serial blood samples drawn on first day of the 5-FU and eniluracil treatment (Day 0) and on Day 14. In addition, eniluracil concentrations were evaluated in all samples obtained for 5-FU pharmacokinetics, as shown above. 5-FU pharmacokinetics were evaluated from 11 serial blood samples drawn after the IV bolus administration of 5-FU on Day-3, Day 0 and Day 14. […] The effect on the local DPD activity and the effect of topical eniluracil on systemic DPD activity were assessed by collecting skin biopsies from both the treatment site and the placebo site, and peripheral blood mononuclear cells (PBMCs) on day-2 and on day 12. DPD activity in PBMCs was also measured on Day 17 and Day 19, to investigate the time to recovery if there was any systemic inhibition of DPD.
# [4] = tested on: EpiDerm™ skin model (normal, human-derived epidermal keratinocytes (NHEK)); assay: EpiDerm skin model MTT conversion assay (ET50, dermal irritation); assay type: cell-based; details: for ET50: exposure times 8, 20, 24 hours
# Source text: The EpiDerm™ skin model system (MatTek) was used to assess the potential dermal irritation of eniluracil alone or its formulation. This system consists of normal, human-derived epidermal keratinocytes (NHEK) which have been cultured to form a multilayered, highly differentiated model of the human epidermis. […] The EpiDerm™ system is mitotically and metabolically active. Markers of mature epidermis-specific differentiation such as pro-filaggrin, the K1/K10 cytokeratin pair, involucrin, and type I epidermal transglutaminase have been localized in the model. […] Eniluracil was prepared and administered to the test system at the three final concentrations of 1000 μM, 500 μM, and 100 μM, and tested at three exposure times of 8, 20, and 24 hours. The DMSO solvent control was tested at exposure times of 8 and 24 hours. The negative control was tested at exposure times of 4 and 24 hours, and the positive control was tested at exposure times of 4 and 8 hours. […] Hydrochloric acid in an amount equivalent to the sodium hydroxide was added to neutralize the ointment. The exposure time control was also exposed in duplicate for 4 and 24 hours. Table 2 below summarizes the ET50 results of the EpiDerm™ assay for the test articles and the positive control, using the negative control results to determine the relative viability.
# [5] = tested on: Thymidine phosphorylase (TP); assay: Thymidine phosphorylase (TP) enzyme activity in skin sample supernatant; details: concentration of 100 uM; 200 μM capecitabine substrate
# Procedure: Skin samples were suspended in 600 μl of homogenization buffer containing 20 mM potassium phosphate (pH 8.0), 1.5 mM dithiothreitol (DTT), and 5 ul/ml protease inhibitor (Sigma). Samples were homogenized and centrifuged at 36,000 rpm for one hour at 4° C. The supernatants were collected and protein concentration was measured using the Bradford assay (Biorad). Thymidine phosporylase (TP) enzyme activity was determined in an assay mixture containing 20 mM potassium phosphate (pH 8.0), 1 mM DTT, 1 mM EDTA, 2 μM 6-^3H-Capecitabine (Moravek Biochemicals, Brea, Calif.), 200 μM unlabeled Capecitabine, varying concentrations of the inhibitor (100 μM, 10 μM, or 1 μM), and 80 μl of protein (6.0 mg/ml) in a final volume of 160 μl. Reactions were incubated at 37° C. for 30 minutes and then terminated by boiling for four minutes. To facilitate protein precipitation, the reactions were incubated at −80° C. for at least 20 minutes, thawed, and then centrifuged for 10 minutes at 14000 rpm at 4° C. The resulting supernatants were filtered through a 0.2 μm Acrodisc filter (VWR International, West Chester, Pa.) and samples were injected in duplicate (60 μl each) onto a HPLC (Hewlett-Packard 1050, Houston, Tex.) equipped with an automatic injector and on-line radioisotope flow detector (Radiomatic FLO-ONE Beta, Packard Instrument, Meriden, Conn.). […]
# [6] = 5-FU pharmacokinetics in pigs with topical eniluracil (Example 6); assay type: in vivo; details: pig, plasma, 6 mg/kg, 5-FU 6 mg/kg bolus, read-out: 5-FU Half-Life, Mean (SD)
# Procedure: as §1, §2
# Ointment exposure time was 5 minutes every other day for 16 days. Eniluracil treated animals also received 617 mg of placebo at a site different from the treatment site. Eniluracil pharmacokinetics were analyzed from the serial blood samples drawn on first day of the 5-FU and eniluracil treatment (Day 0) and on Day 14. In addition, eniluracil concentrations were evaluated in all samples obtained for 5-FU pharmacokinetics, as shown above. 5-FU pharmacokinetics were evaluated from 11 serial blood samples drawn after the IV bolus administration of 5-FU on Day-3, Day 0 and Day 14. On 5-FU treatment days, eniluracil administration was conducted first (5 min) followed by 5-FU at the 6 minute time point. Blood samples were collected for plasma EU analyses prior to topical administration and at 2 min and 5 min (end of topical exposure). Blood samples were collected for both EU and 5-FU analyses immediately prior to 5-FU administration and at the following times from the IV bolus: 2, 5, 10, 15, 30, 45, 60, 90 120, and 180 min. Determinations of eniluracil and 5-fluorouracil plasma pharmacokinetics were made. The effect on the local DPD activity and the effect of topical eniluracil on systemic DPD activity were assessed by collecting skin biopsies from both the treatment site and the placebo site, and peripheral blood mononuclear cells (PBMCs) on day-2 and on day 12. DPD activity in PBMCs was also measured on Day 17 and Day 19, to investigate the time to recovery if there was any systemic inhibition of DPD.
# In terms of statistical considerations, the study was designed with 4 pigs to a treatment group in order to have 80% power for observation of at least a 40% difference in 5-FU systemic exposure between measurements conducted on day-3 (no eniluracil) to day 14 (on eniluracil every other day since day-2) at each of the two dosing levels (4 animals per dose level). These evaluations were conducted using matched, paired T Tests and Wilcoxon tests. In addition, day 14 data were compared between the treatment vs. control groups using the Kiruskal-Wallis test. […]
# [7] = capecitabine at labeled dose; cited from earlier work
smiles,measurement,setting,value
"C#Cc1c[nH]c(=O)[nH]c1=O [Eniluracil, eniluracil]",pH,[1]; eniluracil 100 uM,5
same,pH,[1]; eniluracil 500 uM,5
same,pH,[1]; eniluracil 1000 uM,5
same,effect on skin DPD activity,[2],temporary and recoverable inhibition
same,plasma EU concentration,"[3]; 221 of the 224 samples, limit of quantitation, topical 0.005% or 0.01% w/w, 5 minutes every other day",≤ 11 ng/mL
same,plasma EU concentration,"[3]; pig 5303, EU dose 0.005%, day 14, 6 min",12.81 ng/mL
same,plasma EU concentration,"[3]; pig 5303, EU dose 0.005%, day 14, 11 min",11.52 ng/mL
same,plasma EU concentration,"[3]; pig 5303, EU dose 0.005%, day 14, 15 min",11.07 ng/mL
same,tolerability in EpiDerm skin model,"[4]; 1000, 500 and 100 μM, topical exposures of up to 24 hours",well-tolerated
same,ET50,[4]; eniluracil 100 uM,>24 h
same,ET50,[4]; eniluracil 500 uM,>24 h
same,ET50,[4]; eniluracil 1000 uM,>24 h
Cc1cn([C@H]2C[C@H](O)[C@@H](CO)O2)c(=O)[nH]c1=O [thymidine],inhibition of TP activity,[5],about 50%
"O=c1[nH]cc(F)c(=O)[nH]1 [5-FU, 5-Fluorouracil]",half-life,"[6]; iv, Both Doses of eniluracil ointment, Day 0",10.1 min
same,half-life,"[6]; iv, Both Doses of eniluracil ointment, Day 14",9.77 min
same,half-life,"[6]; iv, Controls (no ointment), Day 0",7.56 min
same,half-life,"[6]; iv, Controls (no ointment), Day 14",9.74 min
same,half-life,"[6]; iv, Controls (no ointment), Day −3",5.51 min
same,half-life,"[6]; iv, eniluracil ointment Dose 0.005%, Day 0",6.98 min
same,half-life,"[6]; iv, eniluracil ointment Dose 0.005%, Day 14",6.7 min
same,half-life,"[6]; iv, eniluracil ointment Dose 0.01%, Day 0",13.2 min
same,half-life,"[6]; iv, eniluracil ointment Dose 0.01%, Day 14",12.8 min
same,half-life,"[6]; topical or ocular, Both Doses of eniluracil ointment, Day −3 (no topical eniluracil)",5.11 min
same,half-life,"[6]; topical or ocular, eniluracil ointment Dose 0.005% group, Day −3 (no topical eniluracil)",5.44 min
same,half-life,"[6]; topical or ocular, eniluracil ointment Dose 0.01% group, Day −3 (no topical eniluracil)",4.78 min
O=c1ccn([C@@H]2O[C@H](CO)[C@@H](O)[C@H]2O)c(=O)[nH]1 [uridine],inhibition of TP activity,[5],about 50%
"CCCCCOC(=O)Nc1nc(=O)n([C@@H]2O[C@H](C)[C@@H](O)[C@H]2O)cc1F [capecitabine, 5′-deoxy-5-fluoro-N-[(pentyloxy)carbonyl]-cytidine]","reported incidence of HFS, all grades",[7],approximately 60%
same,"reported incidence of HFS, high grade",[7],~17%
